From patent US20240336612A1, “BRM Targeting Compounds And Associated Methods Of Use” (Prelude Therapeutics Incorporated, priority 2021, published 2024) come the findings set out here.

Each structure is given as a SMILES string.

For assay [1], the target named is T1, SMARCA2 (Homo sapiens, UniProt P51531).
T1 construct: SMARCA2-HiBiT knock-in Hela monoclonal cell (CS302366); host or cells: HeLa (HiBiT knock-in monoclonal line)
Briefly: SMARCA2 HiBiT degradation assay in HeLa cells. The note with it: 18 hours incubation; for DC50: read-out: DC50 (SM2-HeLa), SMARCA2 degradation potency; for Dmax: read-out: Dmax % (SM2-HeLa), maximum SMARCA2 degradation within the concentrations tested. Type of assay: cell-based. The protocol: (§1) SMARCA2 HiBiT and SMARCA4 HiBiT Degradation Assay (cellular)
(§2) Preparation of SMARCA2/4-HiBiT Knock-In Cells
(§3) SMARCA2-HiBiT knock-in Hela monoclonal cell (CS302366) and SMARCA4-HiBiT knock-in Hela monoclonal cell (CS3023226) were purchased from Promega. The heterozygous HiBiT-knock-in was confirmed by sanger sequence in both SMARCA2-HiBiT and SMARCA4-HiBiT monoclonal cells.
(§4) SMARCA2 HiBiT and SMARCA4 HiBiT Degradation Assay in HeLa Cells
(§5) Dispense 10 μL aliquot of prepared Hela-SMARCA2-HiBiT or Hela-SMARCA4-HiBiT cells (1:1 ratio of cells:Trypan Blue (#1450013, Bio-Rad)) onto cell counting slide (#145-0011, Bio-Rad) and obtain cell density and cell viability using cell counter (TC20, Bio-Rad). Remove appropriate volume of resuspended cells from culture flask to accommodate 2500 cells/well @ 20 μL/well. Transfer Hela-HiBiT cells to 50 ml conical (#430290, Corning). Spin down at 1000 rpm for 5 min using tabletop centrifuge (SPINCHRON 15, Beckman). Discard supernatant and resuspend cell pellet in modified EMEM (#30-2003, ATCC) cell culture media containing 10% FBS (F2422-500ML, Sigma), and 1× Penicillin/Streptomycin (200 g/l) (30-002-CI, Corning) to a cell density of 125,000 cells/ml. Dispense 20 μL of resuspended Hela-HiBit cells per well in 384-well TC treated plate (#12-565-343, Thermo Scientific) using standard cassette (#50950372, Thermo Scientific) on Multidrop Combi (#5840310, Thermo Scientific) inside laminar flow cabinet. Dispense test compounds onto plates using digital liquid dispenser (D300E, Tecan). Incubate plates in humidified tissue culture incubator @37° C. for 18 hours. Add 20 ul of prepared Nano-Glo® HiBiT Lytic detection buffer (N3050, Promega) to each well of 384-well plate using small tube cassette (#24073295, Thermo Scientific) on Multidrop Combi, incubate @ RT for 30-60 min. Read plates on microplate reader (Envision 2105, PerkinElmer) using 384 well Ultra-Sensitive luminescence mode. Raw data files and compound information reports are swept into centralized data lake and deconvoluted using automated scripts designed by TetraScience, Inc. Data analysis, curve-fitting and reporting done in Dotmatics Informatics Suite using Screening Ultra module.
(§6) The results are shown below in Table 4 for the HiBiT assay. In Table 4, the DC50/Dmax% (SM2-HeLa) refers to SMARCA2 degradation potency/maximum SMARCA2 degradation within the concentrations tested in HeLa HiBiT assay. In Table 4, the DC50/Dmax% (SM4-HeLa) refers to SMARCA4 degradation potency/maximum SMARCA4 degradation within the concentrations tested in HeLa HiBiT assay.

Assay [2] addresses T2, SMARCA4 (Homo sapiens, UniProt P51532).
T2 construct: SMARCA4-HiBiT knock-in Hela monoclonal cell (CS3023226); host or cells: HeLa (HiBiT knock-in monoclonal line)
Briefly: SMARCA4 HiBiT degradation assay in HeLa cells. Type of assay: cell-based. The note with it: 18 hours incubation; for DC50: read-out: DC50 (SM4-HeLa), SMARCA4 degradation potency; for Dmax: read-out: Dmax % (SM4-HeLa), maximum SMARCA4 degradation within the concentrations tested. The protocol:
as §1, §2, §3, §4, §5, §6

T1 sequence (P51531 whole entry): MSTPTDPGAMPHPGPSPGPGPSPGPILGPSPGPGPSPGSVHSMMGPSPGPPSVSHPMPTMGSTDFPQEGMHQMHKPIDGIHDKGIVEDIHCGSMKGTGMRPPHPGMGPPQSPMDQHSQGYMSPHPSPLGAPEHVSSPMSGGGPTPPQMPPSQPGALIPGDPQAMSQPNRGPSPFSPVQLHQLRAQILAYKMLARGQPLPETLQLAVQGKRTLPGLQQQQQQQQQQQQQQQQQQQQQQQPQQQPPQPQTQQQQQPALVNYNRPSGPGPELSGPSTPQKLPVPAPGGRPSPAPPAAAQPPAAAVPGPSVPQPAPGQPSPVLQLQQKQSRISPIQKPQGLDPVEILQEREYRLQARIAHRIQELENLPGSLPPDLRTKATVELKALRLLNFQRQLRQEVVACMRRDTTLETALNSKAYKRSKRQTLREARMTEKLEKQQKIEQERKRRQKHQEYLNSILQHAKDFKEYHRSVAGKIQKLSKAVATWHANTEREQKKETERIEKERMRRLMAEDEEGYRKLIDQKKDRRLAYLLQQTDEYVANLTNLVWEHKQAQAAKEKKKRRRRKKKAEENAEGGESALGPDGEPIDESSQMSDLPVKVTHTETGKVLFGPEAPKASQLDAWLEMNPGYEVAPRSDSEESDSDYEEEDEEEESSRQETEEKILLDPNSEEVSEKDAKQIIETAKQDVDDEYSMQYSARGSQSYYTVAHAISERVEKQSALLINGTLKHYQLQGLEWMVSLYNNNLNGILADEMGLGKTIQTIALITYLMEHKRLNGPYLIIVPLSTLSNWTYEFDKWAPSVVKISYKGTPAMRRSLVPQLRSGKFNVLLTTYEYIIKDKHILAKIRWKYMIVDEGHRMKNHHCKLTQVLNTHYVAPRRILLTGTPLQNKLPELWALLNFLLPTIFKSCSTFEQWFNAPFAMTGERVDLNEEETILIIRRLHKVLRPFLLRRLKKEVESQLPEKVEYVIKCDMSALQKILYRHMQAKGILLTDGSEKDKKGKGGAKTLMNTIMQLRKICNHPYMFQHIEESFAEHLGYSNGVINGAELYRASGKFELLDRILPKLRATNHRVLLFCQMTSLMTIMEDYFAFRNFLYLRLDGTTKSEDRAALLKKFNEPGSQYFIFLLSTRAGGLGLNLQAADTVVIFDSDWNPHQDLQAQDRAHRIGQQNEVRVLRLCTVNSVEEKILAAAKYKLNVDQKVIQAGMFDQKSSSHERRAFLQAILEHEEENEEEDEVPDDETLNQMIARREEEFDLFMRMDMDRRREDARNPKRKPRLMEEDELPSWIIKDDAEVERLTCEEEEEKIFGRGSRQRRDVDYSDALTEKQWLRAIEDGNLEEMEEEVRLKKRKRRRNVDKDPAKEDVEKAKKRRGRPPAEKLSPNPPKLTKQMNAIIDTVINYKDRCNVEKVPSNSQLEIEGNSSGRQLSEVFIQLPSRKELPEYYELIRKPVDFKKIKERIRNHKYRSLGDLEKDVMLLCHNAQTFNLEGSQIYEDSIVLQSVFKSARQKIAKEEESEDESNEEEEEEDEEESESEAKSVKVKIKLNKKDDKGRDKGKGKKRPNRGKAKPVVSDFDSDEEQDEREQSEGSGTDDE
T2 sequence (P51532 whole entry): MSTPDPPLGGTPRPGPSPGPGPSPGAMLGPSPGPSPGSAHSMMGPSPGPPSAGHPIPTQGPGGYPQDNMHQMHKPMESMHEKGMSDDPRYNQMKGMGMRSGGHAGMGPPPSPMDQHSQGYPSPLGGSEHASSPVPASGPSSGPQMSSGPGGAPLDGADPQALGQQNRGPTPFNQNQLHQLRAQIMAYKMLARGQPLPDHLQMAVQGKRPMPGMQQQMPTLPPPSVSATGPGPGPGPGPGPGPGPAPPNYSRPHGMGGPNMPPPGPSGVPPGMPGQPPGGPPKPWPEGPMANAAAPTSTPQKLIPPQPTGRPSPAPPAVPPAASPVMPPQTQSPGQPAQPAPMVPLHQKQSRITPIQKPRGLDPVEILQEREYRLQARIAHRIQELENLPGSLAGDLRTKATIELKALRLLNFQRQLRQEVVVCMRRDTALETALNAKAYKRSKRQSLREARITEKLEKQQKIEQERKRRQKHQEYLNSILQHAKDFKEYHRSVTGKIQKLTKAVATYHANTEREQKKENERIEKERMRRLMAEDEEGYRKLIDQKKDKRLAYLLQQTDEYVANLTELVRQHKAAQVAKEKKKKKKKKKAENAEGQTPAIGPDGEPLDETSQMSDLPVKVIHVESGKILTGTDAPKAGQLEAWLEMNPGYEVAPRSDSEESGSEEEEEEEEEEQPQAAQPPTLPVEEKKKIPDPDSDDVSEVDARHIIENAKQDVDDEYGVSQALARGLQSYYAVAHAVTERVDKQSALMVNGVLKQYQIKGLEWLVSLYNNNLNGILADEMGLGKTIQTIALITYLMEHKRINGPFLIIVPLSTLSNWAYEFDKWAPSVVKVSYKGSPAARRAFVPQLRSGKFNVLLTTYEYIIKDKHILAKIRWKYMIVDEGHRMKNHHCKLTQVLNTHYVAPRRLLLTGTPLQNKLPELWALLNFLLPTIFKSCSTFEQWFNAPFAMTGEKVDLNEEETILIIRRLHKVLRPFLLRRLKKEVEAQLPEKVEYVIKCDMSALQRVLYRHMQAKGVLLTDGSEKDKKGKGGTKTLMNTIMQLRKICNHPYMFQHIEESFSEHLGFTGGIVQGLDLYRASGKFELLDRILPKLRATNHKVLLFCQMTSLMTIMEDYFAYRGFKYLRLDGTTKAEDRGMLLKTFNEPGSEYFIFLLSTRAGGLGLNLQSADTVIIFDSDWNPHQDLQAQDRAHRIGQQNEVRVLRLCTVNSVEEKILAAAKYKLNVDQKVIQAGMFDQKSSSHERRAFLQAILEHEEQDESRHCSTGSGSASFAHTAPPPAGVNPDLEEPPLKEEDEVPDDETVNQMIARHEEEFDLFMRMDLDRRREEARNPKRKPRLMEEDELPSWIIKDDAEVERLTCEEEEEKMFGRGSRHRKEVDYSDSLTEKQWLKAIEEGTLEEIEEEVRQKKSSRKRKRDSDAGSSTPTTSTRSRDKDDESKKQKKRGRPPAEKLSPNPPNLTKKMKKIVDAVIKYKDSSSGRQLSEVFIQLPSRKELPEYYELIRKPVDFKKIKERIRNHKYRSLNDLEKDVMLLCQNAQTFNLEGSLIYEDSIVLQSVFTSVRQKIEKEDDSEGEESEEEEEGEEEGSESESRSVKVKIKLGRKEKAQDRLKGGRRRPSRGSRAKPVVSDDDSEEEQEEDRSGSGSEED

In the case of `Cc1ncsc1-c1ccc([C@H](C)NC(=O)[C@@H]2C[C@@H](O)CN2C(=O)[C@@H](c2cc(OCCN3CCC(N4CCC5(CC4)CNc4nnc(-c6ccccc6O)cc45)C3)no2)C(C)C)cc1` (stereo partly drawn) [Example 1, (2S,4R)-4-hydroxy-1-((2R)-2-(3-(2-(3-(3′-(2-hydroxyphenyl)-6′,7′-dihydrospiro[piperidine-4,5′-pyrrolo[2,3-c]pyridazin]-1-yl)pyrrolidin-1-yl)ethoxy)isoxazol-5-yl)-3-methylbutanoyl)-N-((S)-1-(4-(4-methylthiazol-5-yl)phenyl)ethyl) pyrrolidine-2-carboxamide], in assay [1], the DC50 is less than 100 nM and the Dmax was greater than 75%. Moreover, in assay [2], the DC50 is no less than 10000 nM and the Dmax is no more than 50%.
The corresponding values for `Cc1ncsc1-c1ccc([C@H](C)NC(=O)[C@@H]2C[C@@H](O)CN2C(=O)[C@@H](c2cc(OCCN3CCC(N4CCC5(CC4)CNc4nnc(-c6ccccc6O)cc4N5)CC3)no2)C(C)C)cc1` [Example 2, (2S,4R)-4-hydroxy-1-((R)-2-(3-(2-(4-(3′-(2-hydroxyphenyl)-7′,8′-dihydro-5′H-spiro[piperidine-4,6′-pyrazino[2,3-c]pyridazin]-1-yl)piperidin-1-yl)ethoxy)isoxazol-5-yl)-3-methylbutanoyl)-N-((S)-1-(4-(4-methylthiazol-5-yl)phenyl)ethyl) pyrrolidine-2-carboxamide] are less than 100 nM, 50 to 75%, less than 100 nM and greater than 75%.
With `Cc1ncsc1-c1ccc([C@H](C)NC(=O)[C@@H]2C[C@@H](O)CN2C(=O)[C@@H](c2cc(OCCN3CCC(CN4CCC5(CC4)CNc4nnc(-c6ccccc6O)cc45)CC3)no2)C(C)C)cc1` [Example 3, (2S,4R)-4-hydroxy-1-((R)-2-(3-(2-(4-((3′-(2-hydroxyphenyl)-6′,7′-dihydrospiro[piperidine-4,5′-pyrrolo[2,3-c]pyridazin]-1-yl)methyl)piperidin-1-yl)ethoxy)isoxazol-5-yl)-3-methylbutanoyl)-N-((S)-1-(4-(4-methylthiazol-5-yl)phenyl)ethyl) pyrrolidine-2-carboxamide], the DC50 in assay [1] was less than 100 nM; in assay [2], no less than 10000 nM. The Dmax in assay [1] was 50 to 75%; in assay [2] it was no more than 50%.
For `Cc1ncsc1-c1ccc([C@H](C)NC(=O)[C@@H]2C[C@@H](O)CN2C(=O)[C@@H](c2cc(OCCN3CCC(N4CCCC5(CNc6nnc(-c7ccccc7O)cc6N5)C4)C3)no2)C(C)C)cc1` (stereo partly drawn) [Example 4, (2S,4R)-4-hydroxy-1-((2R)-2-(3-(2-(3-(3′-(2-hydroxyphenyl)-7′,8′-dihydro-5′H-spiro[piperidine-3,6′-pyrazino[2,3-c]pyridazin]-1-yl)pyrrolidin-1-yl)ethoxy)isoxazol-5-yl)-3-methylbutanoyl)-N-((S)-1-(4-(4-methylthiazol-5-yl)phenyl)ethyl) pyrrolidine-2-carboxamide] the same measures were less than 100 nM, less than 100 nM, 50 to 75% and greater than 75%.
In the case of `Cc1ncsc1-c1ccc([C@H](C)NC(=O)[C@@H]2C[C@@H](O)CN2C(=O)[C@@H](c2cc(OCCN3CCC(N4CCCC5(CNc6nnc(-c7ccccc7O)cc6N5)C4)CC3)no2)C(C)C)cc1` (stereo partly drawn) [Example 5, (2S,4R)-4-hydroxy-1-((2R)-2-(3-(2-(4-(3′-(2-hydroxyphenyl)-7′,8′-dihydro-5′H-spiro[piperidine-3,6′-pyrazino[2,3-c]pyridazin]-1-yl)piperidin-1-yl)ethoxy)isoxazol-5-yl)-3-methylbutanoyl)-N-((S)-1-(4-(4-methylthiazol-5-yl)phenyl)ethyl) pyrrolidine-2-carboxamide], in assay [1], the DC50 is less than 100 nM and the Dmax fell in the range of 50 to 75%. In addition, in assay [2], the DC50 was less than 100 nM and the Dmax was greater than 75%.
Take `Cc1ncsc1-c1ccc([C@H](C)NC(=O)[C@@H]2C[C@@H](O)CN2C(=O)[C@@H](c2cc(OCCN3CCC(N4CCC5(CC4)CNc4nnc(-c6ccccc6O)cc4N5)C3)no2)C(C)C)cc1` (stereo partly drawn) [Example 6, (2S,4R)-4-hydroxy-1-((2R)-2-(3-(2-(3-(3′-(2-hydroxyphenyl)-7′,8′-dihydro-5′H-spiro [piperidine-4,6′-pyrazino[2,3-c]pyridazin]-1-yl)pyrrolidin-1-yl)ethoxy)isoxazol-5-yl)-3-methylbutanoyl)-N-((S)-1-(4-(4-methylthiazol-5-yl)phenyl)ethyl) pyrrolidine-2-carboxamide]: in assay [1], the DC50 was in the range of 1000 to 10000 nM and the Dmax was no more than 50%. In addition, in assay [2], the DC50 lay within 100 to 1000 nM and the Dmax is greater than 75%.
Regarding `Cc1ncsc1-c1ccc([C@H](C)NC(=O)[C@@H]2C[C@@H](O)CN2C(=O)[C@@H](c2cc(OCCN3CCC(CN4CCCC5(CNc6nnc(-c7ccccc7O)cc6N5)C4)CC3)no2)C(C)C)cc1` (stereo partly drawn) [Example 7, (2S,4R)-4-hydroxy-1-((2R)-2-(3-(2-(4-((3′-(2-hydroxyphenyl)-7′,8′-dihydro-5′H-spiro[piperidine-3,6′-pyrazino[2,3-c]pyridazin]-1-yl)methyl)piperidin-1-yl)ethoxy)isoxazol-5-yl)-3-methylbutanoyl)-N-((S)-1-(4-(4-methylthiazol-5-yl)phenyl)ethyl) pyrrolidine-2-carboxamide], in assay [1], the DC50 is less than 100 nM and the Dmax was greater than 75%. For the same molecule, in assay [2], the DC50 was less than 100 nM and the Dmax is greater than 75%.
In the case of `Cc1ncsc1-c1ccc([C@H](C)NC(=O)[C@@H]2C[C@@H](O)CN2C(=O)[C@@H](c2cc(OCCN3CCC(CN4CCC5(CC4)CNc4nnc(-c6ccccc6O)cc4N5)CC3)no2)C(C)C)cc1` [Example 8, (2S,4R)-4-hydroxy-1-((R)-2-(3-(2-(4-((3′-(2-hydroxyphenyl)-7′,8′-dihydro-5′H-spiro [piperidine-4,6′-pyrazino[2,3-c]pyridazin]-1-yl)methyl)piperidin-1-yl)ethoxy)isoxazol-5-yl)-3-methylbutanoyl)-N-((S)-1-(4-(4-methylthiazol-5-yl)phenyl)ethyl) pyrrolidine-2-carboxamide], in assay [1], the DC50 is less than 100 nM and the Dmax was greater than 75%. Further, in assay [2], the DC50 was less than 100 nM and the Dmax is greater than 75%.
